Results: patent US10703756B2, “Pyrrolo[2,3-D]pyrimidinyl, pyrrolo[2,3-B]pyrazinyl, pyrrolo[2,3-B]pyridinyl acrylamides and epoxides thereof” (Pfizer Inc., priority 2015, dated 2020)

Experiments:
[1] = system: IL-15 induced STAT5 phosphorylation in human whole blood lymphocytes; experiment: HWB IL-15 Induced STAT5 Phosphorylation Assay; type: cell-based; details: Lymphocyte, IL-15 final 50 ng/ml, read-out: HWB_IL15 pSTAT5 IC50
How it was run: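 Heparinised human whole blood preincubated with compound (0.2% DMSO final) 45 min at 37° C, then stimulated with human IL-15 (50 ng/ml final) for 15 min. After lyse/fix and Perm Buffer III permeabilisation, stained overnight at 4° C with AlexaFluor647 anti-phospho-STAT5; read by flow cytometry gated on total lymphocytes.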

[2] = Stability of JAK3 Covalent Inhibitors in Human Whole Blood; type: in vitro ADME; details: both sexes, 1 μM test compound, 37° C., 180 min incubation, read-out: Human blood stability t1/2
How it was run: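 Parent remaining versus time was derived from LC-MS/MS peak area ratios to internal standard after acetonitrile quench. Incubations ran for 180 min at 37° C, in duplicate, with 1 μM test compound in pooled K2-EDTA human blood (two healthy donors).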

Row | Compound | IC50 [1] [nM] | half-life at 1 μM [2] [min]
1 | C=CC(=O)N1CCC(Nc2cnc3[nH]cc(C(=O)NCc4cccc(F)c4)c3n2)CC1 [Example 176, 2-[(1-acryloylpiperidin-4-yl)amino]-N-(3-fluorobenzyl)-5H-pyrrolo[2,3-b]pyrazine-7-carboxamide] | 318 | 291
2 | C=CC(=O)N1CCC(Nc2cnc3[nH]cc(C(=O)NCCC4CC4)c3n2)CC1 [Example 178, 2-[(1-acryloylpiperidin-4-yl)amino]-N-(2-cyclopropylethyl)-5H-pyrrolo[2,3-b]pyrazine-7-carboxamide] | 360 | 334
3 | C=CC(=O)N1CCC(Nc2cnc3[nH]cc(C(=O)NCc4ccccc4)c3n2)CC1 [Example 187, 2-[(1-acryloylpiperidin-4-yl)amino]-N-benzyl-5H-pyrrolo[2,3-b]pyrazine-7-carboxamide] | 240 | > 360
4 | C=CC(=O)N1CCC(Nc2cnc3[nH]cc(C(=O)NCc4ccc(F)cc4)c3n2)CC1 [Example 188, 2-[(1-acryloylpiperidin-4-yl)amino]-N-(4-fluorobenzyl)-5H-pyrrolo[2,3-b]pyrazine-7-carboxamide] | 913 | > 360
5 | C=CC(=O)N1CCC(Nc2cnc3[nH]cc(C(=O)NCc4ccc(F)c(C#N)c4)c3n2)CC1 [Example 189, 2-[(1-acryloylpiperidin-4-yl)amino]-N-(3-cyano-4-fluorobenzyl)-5H-pyrrolo[2,3-b]pyrazine-7-carboxamide] | 1140 | > 360
6 | C=CC(=O)N1CCC(Nc2cnc3[nH]cc(C(=O)NCc4ccccc4F)c3n2)CC1 [Example 196, 2-[(1-acryloylpiperidin-4-yl)amino]-N-(2-fluorobenzyl)-5H-pyrrolo[2,3-b]pyrazine-7-carboxamide] | 362 | > 360
7 | C=CC(=O)N1CCC(Oc2cnc3[nH]cc(C(=O)NC45CC(C4)C5)c3n2)CC1 [Example 200, 2-[(1-acryloylpiperidin-4-yl)oxy]-N-(bicyclo[1.1.1]pent-1-yl)-5H-pyrrolo[2,3-b]pyrazine-7-carboxamide] | 1520 | > 360
8 | C=CC(=O)N1CCC(Oc2cnc3[nH]cc(C(=O)N[C@@H](C)CC)c3n2)CC1 [Example 205, 2-[(1-acryloylpiperidin-4-yl)oxy]-N-[(2S)-butan-2-yl]-5H-pyrrolo[2,3-b]pyrazine-7-carboxamide] | 513 | 250
9 | C=CC(=O)N1CCC(Oc2cnc3[nH]cc(C(=O)NC(C)(C)CC)c3n2)CC1 [Example 209, 2-[(1-acryloylpiperidin-4-yl)oxy]-N-(2-methylbutan-2-yl)-5H-pyrrolo[2,3-b]pyrazine-7-carboxamide] | > 10000 | 267
10 | C=CC(=O)N1CCC(Oc2cnc3[nH]cc(C(=O)N[C@H](C)COC)c3n2)CC1 [Example 214, 2-[(1-acryloylpiperidin-4-yl)oxy]-N-[(2R)-1-methoxypropan-2-yl]-5H-pyrrolo[2,3-b]pyrazine-7-carboxamide] | 195 | 287
11 | C=CC(=O)N1CCC(Oc2cnc3[nH]cc(C(=O)NC4CCCC4(F)F)c3n2)CC1 (stereo not shown) [Example 219, 2-[(1-acryloylpiperidin-4-yl)oxy]-N-(2,2-difluorocyclopentyl)-5H-pyrrolo[2,3-b)pyrazine-7-carboxamide] | 889 | 243
12 | C=CC(=O)N1CCC(Oc2cnc3[nH]cc(C(=O)N[C@H]4CC[C@@H](F)C4)c3n2)CC1 [Example 225, 2-[(1-acryloylpiperidin-4-yl)oxy]-N-[(1S,3R)-3-fluorocyclopentyl]-5H-pyrrolo[2,3-b]pyrazine-7-carboxamide] | 772 | 236
13 | C=CC(=O)N1CCC(Oc2cnc3[nH]cc(C(=O)N[C@H](C)CC)c3n2)CC1 [Example 227, 2-[(1-acryloylpiperidin-4-yl)oxy]-N-[(2R)-butan-2-yl]-5H-pyrrolo[2,3-b]pyrazine-7-carboxamide] | 682 | 270
14 | C=CC(=O)N1CCC(Oc2cnc3[nH]cc(C(=O)N[C@@H](C)COC)c3n2)CC1 [Example 228, 2-[(1-acryloylpiperidin-4-yl)oxy]-N-[(2S)-1-methoxypropan-2-yl]-5H-pyrrolo[2,3-b]pyrazine-7-carboxamide] | 378 | 254
15 | C=CC(=O)N1CCC(Oc2cnc3[nH]cc(C(=O)N[C@@H]4CCC[C@H]4F)c3n2)CC1 [Example 229, 2-[(1-acryloylpiperidin-4-yl)oxy]-N-[(1R,2R)-2-fluorocyclopentyl]-5H-pyrrolo[2,3-b]pyrazine-7-carboxamide] | 2390 | 356
16 | C=CC(=O)N1CCC(Oc2cnc3[nH]cc(C(=O)N[C@@H]4CCC[C@@H]4F)c3n2)CC1 [Example 230, 2-[(1-acryloylpiperidin-4-yl)oxy]-N-[(1R,2S)-2-fluorocyclopentyl]-5H-pyrrolo[2,3-b]pyrazine-7-carboxamide] | 1710 | 351
17 | C=CC(=O)N1CC[C@H](Nc2cnc3[nH]cc(C(=O)NCC4CCCC4)c3n2)[C@H](OC)C1 [Example 284, 2-{[(3R,4S)-1-acryloyl-3-methoxypiperidin-4-yl]amino}-N-(cyclopentylmethyl)-5H-pyrrolo[2,3-b]pyrazine-7-carboxamide] | 819 | > 360
18 | C=CC(=O)N1CCN(c2cnc3[nH]cc(C(=O)NCC(C)C)c3n2)C[C@@H]1CC(C)C [Example 288, 2-[(3S)-4-acryloyl-3-(2-methylpropyl)piperazin-1-yl]-N-(2-methylpropyl)-5H-pyrrolo[2,3-b]pyrazine-7-carboxamide] | 2160 | > 360
19 | C=CC(=O)N1CC[C@H](Nc2cnc3[nH]cc(C(=O)NCC(F)(F)F)c3n2)[C@H](OC)C1 [Example 293, 2-{[(3R,4S)-1-acryloyl-3-methoxypiperidin-4-yl]amino}-N-(2,2,2-trifluoroethyl)-5H-pyrrolo[2,3-b]pyrazine-7-carboxamide] | 818 | 204
20 | C=CC(=O)N1CCN(c2cnc3[nH]cc(C(=O)N[C@@H](C)COC)c3n2)CC1 [Example 295, 2-(4-acryloylpiperazin-1-yl)-N-[(2S)-1-methoxypropan-2-yl]-5H-pyrrolo[2,3-b]pyrazine-7-carboxamide] | 199 | 133
21 | C=CC(=O)N1CCN(c2cnc3[nH]cc(C(=O)N[C@@H](C)COC)c3n2)CC1(C)C [Example 298, 2-(4-acryloyl-3,3-dimethylpiperazin-1-yl)-N-[(2S)-1-methoxypropan-2-yl]-5H-pyrrolo[2,3-b]pyrazine-7-carboxamide] | 1280 | > 360
22 | C=CC(=O)N1CCN(c2cnc3[nH]cc(C(=O)N[C@H](CC)CC#N)c3n2)C[C@@H]1CC(C)C [Example 314, 2-[(3S)-4-acryloyl-3-(2-methylpropyl)piperazin-1-yl]-N-[(2R)-1-cyanobutan-2-yl]-5H-pyrrolo[2,3-b]pyrazine-7-carboxamide] | 402 | 187
23 | C=CC(=O)N1CC[C@H](Nc2cnc3[nH]cc(C(=O)NCCCC(F)(F)F)c3n2)[C@H](OC)C1 [Example 319, 2-{[(3R,4S)-1-acryloyl-3-methoxypiperidin-4-yl]amino}-N-(4,4,4-trifluorobutyl)-5H-pyrrolo[2,3-b]pyrazine-7-carboxamide] | 396 | 334
24 | C=CC(=O)N1CC[C@@H](Nc2cnc3[nH]cc(C(=O)NCC(C)(F)F)c3n2)[C@@H](OC)C1 [Example 321, 2-{[(3S,4R)-1-acryloyl-3-methoxypiperidin-4-yl]amino}-N-(2,2-difluoropropyl)-5H-pyrrolo[2,3-b]pyrazine-7-carboxamide] | 999 | > 360
25 | C=CC(=O)N1CCC(C)(Nc2cnc3[nH]cc(C(=O)NC4CCC4)c3n2)CC1 [Example 324, 2-[(1-acryloyl-4-methylpiperidin-4-yl)amino]-N-cyclobutyl-5H-pyrrolo[2,3-b]pyrazine-7-carboxamide] | 1270 | 258
26 | C=CC(=O)N1CC[C@H](Nc2cnc3[nH]cc(C(=O)NCC)c3n2)[C@H](OC)C1 [Example 326, 2-{[(3R,4S)-1-acryloyl-3-methoxypiperidin-4-yl]amino}-N-ethyl-5H-pyrrolo[2,3-b]pyrazine-7-carboxamide] | 780 | > 360
27 | C=CC(=O)N1CCN(c2cnc3[nH]cc(C(=O)N[C@H](C)COC)c3n2)CC1(C)C [Example 327] | 1040 | > 360
28 | C=CC(=O)N1CC[C@@H](Nc2cnc3[nH]cc(C(=O)N[C@H](C)COC)c3n2)[C@@H](OC)C1 [Example 331, 2-{[(3S,4R)-1-acryloyl-3-methoxypiperidin-4-yl]amino}-N-[(2R)-1-methoxypropan-2-yl]-5H-pyrrolo[2,3-b]pyrazine-7-carboxamide] | 263 | 331
29 | C=CC(=O)N1CCN(c2cnc3[nH]cc(C(=O)N[C@H](C)COC)c3n2)CC1 [Example 332] | 221 | 145
